Measurements: article PMC5447808 (Pulmonary pharmacology & therapeutics, 2017)

What was measured:
[1] = molecular target: T1, KAT8 (lysine acetyltransferase 8) (Homo sapiens, UniProt Q9H7Z6); assay: enzyme kinetics, Km app. for Ac-CoA without inhibitor; format: biochemical; details: read-out: Ac-CoA / Km app.
T1 sequence (Q9H7Z6 2-458): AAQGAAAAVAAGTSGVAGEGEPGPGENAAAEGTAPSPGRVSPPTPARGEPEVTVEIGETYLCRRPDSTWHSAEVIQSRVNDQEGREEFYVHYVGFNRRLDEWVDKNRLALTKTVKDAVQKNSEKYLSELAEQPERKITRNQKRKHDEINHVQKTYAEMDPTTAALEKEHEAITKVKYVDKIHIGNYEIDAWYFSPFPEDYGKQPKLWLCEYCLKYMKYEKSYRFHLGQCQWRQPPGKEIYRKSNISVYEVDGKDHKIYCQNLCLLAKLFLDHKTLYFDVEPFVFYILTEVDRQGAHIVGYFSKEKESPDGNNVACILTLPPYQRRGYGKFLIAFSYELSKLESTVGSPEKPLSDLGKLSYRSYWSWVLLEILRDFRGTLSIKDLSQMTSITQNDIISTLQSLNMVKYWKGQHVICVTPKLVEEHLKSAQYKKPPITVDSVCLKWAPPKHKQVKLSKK

[2] = molecular target: T1, KAT8 (lysine acetyltransferase 8); assay: enzyme kinetics of KAT8 HAT activity, fluorescent detection of CoASH; format: biochemical

Structure (SMILES) | Km [1] [µM] | Ki [2] [µM]
CC(=O)SCCNC(=O)CCNC(=O)[C@H](O)C(C)(C)COP(=O)(O)OP(=O)(O)OC[C@H]1O[C@@H](n2cnc3c(N)ncnc32)[C@H](O)[C@@H]1OP(=O)(O)O [Ac-CoA] | 4.1 ± 1.1 | –
CCCCCCCc1ccc(CCc2cccc(O)c2C(=O)O)cc1 [MG149] | – | 39 ± 7.7
